Experiments:
barnyard grass [1] = experiment: Test Example 3: herbicidal effect by foliage application, Wagner pot (Table 18, symbol H); assay type: in vivo, barnyard grass (Echinochloa crus-galli)
Outline: (§1)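 Plants were sown in alluvial soil held under 0.1–0.5 cm standing water and grown 14 days in a greenhouse at 25–30 °C. An emulsifiable formulation, water-diluted to the set dose, was then sprayed onto the foliage, and effects were scored three weeks later using previously defined criteria.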

Chinese sprangletop = experiment: Test Example 3: herbicidal effect by foliage application, Wagner pot (Table 18, symbol D); assay type: in vivo, chinese sprangletop (Leptochloa chinensis)
Outline: as §1

rice flat sedge = experiment: Test Example 3: herbicidal effect by foliage application, Wagner pot (Table 18, symbol E); assay type: in vivo, rice flat sedge (Cyperus iria)
Outline: as §1

southern crabgrass = experiment: Test Example 5: herbicidal effect by foliage application, plastic box (Table 20, symbol F); assay type: in vivo, southern crabgrass (Digitaria ciliaris)
Outline: (§2)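 Plants sown in sterilized diluvial soil and grown 14 days in a greenhouse at 25° C to 30° C, then sprayed on the foliage with the compound's emulsion diluted in water to a predetermined herbicide amount. Injury to weeds and crops scored three weeks after application on a visual rating scale.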

green foxtail = experiment: Test Example 5: herbicidal effect by foliage application, plastic box (Table 20, symbol G); assay type: in vivo, green foxtail (Setaria viridis)
Outline: as §2

barnyard grass [2] = experiment: Test Example 5: herbicidal effect by foliage application, plastic box (Table 20, symbol H); assay type: in vivo, barnyard grass (Echinochloa crus-galli)
Outline: as §2

wild oat = experiment: Test Example 5: herbicidal effect by foliage application, plastic box (Table 20, symbol I); assay type: in vivo, wild oat (Avena fatua)
Outline: as §2

blackgrass = experiment: Test Example 5: herbicidal effect by foliage application, plastic box (Table 20, symbol J); assay type: in vivo, blackgrass (Alopecurus myosuroides)
Outline: as §2

Italian ryegrass = experiment: Test Example 5: herbicidal effect by foliage application, plastic box (Table 20, symbol K); assay type: in vivo, Italian ryegrass (Lolium multiflorum)
Outline: as §2

windgrass = experiment: Test Example 5: herbicidal effect by foliage application, plastic box (Table 20, symbol L); assay type: in vivo, windgrass (Apera spica-venti)
Outline: as §2

velvetleaf = experiment: Test Example 5: herbicidal effect by foliage application, plastic box (Table 20, symbol M); assay type: in vivo, velvetleaf (Abutilon theophrasti)
Outline: as §2

redroot pigweed = experiment: Test Example 5: herbicidal effect by foliage application, plastic box (Table 20, symbol N); assay type: in vivo, redroot pigweed (Amaranthus retroflexus)
Outline: as §2

lambsquarters = experiment: Test Example 5: herbicidal effect by foliage application, plastic box (Table 20, symbol O); assay type: in vivo, lambsquarters (Chenopodium album)
Outline: as §2

chickweed = experiment: Test Example 5: herbicidal effect by foliage application, plastic box (Table 20, symbol P); assay type: in vivo, common chickweed (Stellaria media)
Outline: as §2

persian speedwell = experiment: Test Example 5: herbicidal effect by foliage application, plastic box (Table 20, symbol R); assay type: in vivo, Persian speedwell (Veronica persica)
Outline: as §2

[3] = amount of applied herbicide 320 g/ha, foliage application after 14-day growth, evaluated three weeks after application
[4] = amount of applied herbicide 320 g/ha
[5] = foliage application, 320 g/ha, evaluated three weeks after application
[6] = foliage application, AAH 320 g/ha, three weeks after application

For `CCSc1cccc(-c2sc3c(Cl)cccc3c2-c2c(O)c(C)nn(C)c2=O)c1` [4-092], the “herbicidal effect on barnyard grass (H)” value (barnyard grass [1]; 320 g/ha) was 5 (Herbicidal rate of 90% or more (almost completely withered)), the “herbicidal effect on Chinese sprangletop (D)” value (Chinese sprangletop; 320 g/ha) was 3 (Herbicidal rate of 40% or more and less than 70%) and the “herbicidal effect on rice flat sedge (E)” value (rice flat sedge; 320 g/ha) was 4 (Herbicidal rate of 70% or more and less than 90%). For the same molecule, the “Herbicidal effect by foliage application, F: southern crabgrass” value (southern crabgrass; [3]) was 4 (Herbicidal rate of 70% or more and less than 90%), the “Herbicidal effect by foliage application, G: green foxtail” value (green foxtail; [3]) was 3 (Herbicidal rate of 40% or more and less than 70%) and the “Herbicidal effect by foliage application, H: barnyard grass” value (barnyard grass [2]; [3]) was 3 (Herbicidal rate of 40% or more and less than 70%). The “Herbicidal effect by foliage application, I: wild oat” value (wild oat; [3]) was 1 (Herbicidal rate of 5% or more and less than 20%), the “Herbicidal effect by foliage application, J: blackgrass” value (blackgrass; [3]) was 0 (Herbicidal rate of 5% or less (almost no effect)) and the “Herbicidal effect by foliage application, K: Italian ryegrass” value (Italian ryegrass; [3]) was 2 (Herbicidal rate of 20% or more and less than 40%). The “Herbicidal effect by foliage application, L: windgrass” value (windgrass; [3]) was 5 (Herbicidal rate of 90% or more (almost completely withered)), the “Herbicidal effect by foliage application, M: velvetleaf” value (velvetleaf; [3]) was 3 (Herbicidal rate of 40% or more and less than 70%) and the “Herbicidal effect by foliage application, N: redroot pigweed” value (redroot pigweed; [3]) was 5 (Herbicidal rate of 90% or more (almost completely withered)). The “Herbicidal effect by foliage application, O: lambsquarters” value (lambsquarters; [3]) was 3 (Herbicidal rate of 40% or more and less than 70%), the “Herbicidal effect by foliage application, P: chickweed” value (chickweed; [3]) was 4 (Herbicidal rate of 70% or more and less than 90%) and the “Herbicidal effect by foliage application, R: persian speedwell” value (persian speedwell; [3]) was 5 (Herbicidal rate of 90% or more (almost completely withered)).

`Cc1nn(C)c(=O)c(-c2c(-c3cccc(OC(F)F)c3)sc3ccc(F)cc23)c1O` [2-234] was tested, and the “herbicidal effect on H: barnyard grass” value (barnyard grass [1]; [4]) was 3 (Herbicidal rate of 40% or more and less than 70%), the “herbicidal effect on D: Chinese sprangletop” value (Chinese sprangletop; [4]) was 0 (Herbicidal rate of 5% or less (almost no effect)) and the “herbicidal effect on E: rice flat sedge” value (rice flat sedge; [4]) was 0 (Herbicidal rate of 5% or less (almost no effect)). For the same molecule, the “herbicidal effect on F: southern crabgrass (criteria 0-5)” value (southern crabgrass; [5]) was 0 (Herbicidal rate of 5% or less (almost no effect)), the “herbicidal effect on G: green foxtail (criteria 0-5)” value (green foxtail; [5]) was 0 (Herbicidal rate of 5% or less (almost no effect)) and the “herbicidal effect on H: barnyard grass (criteria 0-5)” value (barnyard grass [2]; [5]) was 0 (Herbicidal rate of 5% or less (almost no effect)). The “herbicidal effect on I: wild oat (criteria 0-5)” value (wild oat; [5]) was 0 (Herbicidal rate of 5% or less (almost no effect)), the “herbicidal effect on J: blackgrass (criteria 0-5)” value (blackgrass; [5]) was 0 (Herbicidal rate of 5% or less (almost no effect)) and the “herbicidal effect on K: Italian ryegrass (criteria 0-5)” value (Italian ryegrass; [5]) was 0 (Herbicidal rate of 5% or less (almost no effect)). The “herbicidal effect on L: windgrass (criteria 0-5)” value (windgrass; [5]) was 0 (Herbicidal rate of 5% or less (almost no effect)), the “herbicidal effect on M: velvetleaf (criteria 0-5)” value (velvetleaf; [5]) was 0 (Herbicidal rate of 5% or less (almost no effect)) and the “herbicidal effect on N: redroot pigweed (criteria 0-5)” value (redroot pigweed; [5]) was 4 (Herbicidal rate of 70% or more and less than 90%). For the same molecule, the “herbicidal effect on O: lambsquarters (criteria 0-5)” value (lambsquarters; [5]) was 2 (Herbicidal rate of 20% or more and less than 40%), the “herbicidal effect on P: chickweed (criteria 0-5)” value (chickweed; [5]) was 5 (Herbicidal rate of 90% or more (almost completely withered)) and the “herbicidal effect on R: persian speedwell (criteria 0-5)” value (persian speedwell; [5]) was 5 (Herbicidal rate of 90% or more (almost completely withered)).

`COc1nn(C)c(=O)c(-c2c(-c3cccc(OC(F)(F)F)c3)sc3ccccc23)c1O` [1-160] was tested, and the “herbicidal effect on H (barnyard grass), rating 0-5” value (barnyard grass [1]; 320 g/ha) was 0 (Herbicidal rate of 5% or less (almost no effect)), the “herbicidal effect on D (Chinese sprangletop), rating 0-5” value (Chinese sprangletop; 320 g/ha) was 1 (Herbicidal rate of 5% or more and less than 20%) and the “herbicidal effect on E (rice flat sedge), rating 0-5” value (rice flat sedge; 320 g/ha) was 4 (Herbicidal rate of 70% or more and less than 90%). The “F: southern crabgrass, herbicidal effect” value (southern crabgrass; [6]) was 0 (Herbicidal rate of 5% or less (almost no effect)), the “G: green foxtail, herbicidal effect” value (green foxtail; [6]) was 1 (Herbicidal rate of 5% or more and less than 20%) and the “H: barnyard grass, herbicidal effect” value (barnyard grass [2]; [6]) was 1 (Herbicidal rate of 5% or more and less than 20%). For the same molecule, the “I: wild oat, herbicidal effect” value (wild oat; [6]) was 0 (Herbicidal rate of 5% or less (almost no effect)), the “J: blackgrass, herbicidal effect” value (blackgrass; [6]) was 0 (Herbicidal rate of 5% or less (almost no effect)) and the “K: Italian ryegrass, herbicidal effect” value (Italian ryegrass; [6]) was 1 (Herbicidal rate of 5% or more and less than 20%). The “L: windgrass, herbicidal effect” value (windgrass; [6]) was 0 (Herbicidal rate of 5% or less (almost no effect)), the “M: velvetleaf, herbicidal effect” value (velvetleaf; [6]) was 1 (Herbicidal rate of 5% or more and less than 20%) and the “N: redroot pigweed, herbicidal effect” value (redroot pigweed; [6]) was 5 (Herbicidal rate of 90% or more (almost completely withered)). The “O: lambsquarters, herbicidal effect” value (lambsquarters; [6]) was 1 (Herbicidal rate of 5% or more and less than 20%), the “P: chickweed, herbicidal effect” value (chickweed; [6]) was 4 (Herbicidal rate of 70% or more and less than 90%) and the “R: persian speedwell, herbicidal effect” value (persian speedwell; [6]) was 0 (Herbicidal rate of 5% or less (almost no effect)).

From US20230085307A1, “PYRIDAZINONE COMPOUND AND HERBICIDE” (NISSAN CHEMICAL CORPORATION, priority 2019, published 2023)
